Data reported in ChEMBL document CHEMBL5614394, “Novel pleuromutilin derivatives conjugated with phenyl-sulfide and boron-containing moieties as potent antibacterial agents against antibiotic-resistant bacteria” (Eur J Med Chem, 2024).
≈ marks a conversion by molar mass, not a printed value.

system: Staphylococcus simulans; assay: Antibacterial activity against pleuromutilin-resistant Staphylococcus simulans isolate 55-1 harboring cfr+ genotype assessed as inhibition of visible growth of bacteria incubated for 24 hrs by CLSI protocol based broth-dilution method; type: functional

| SMILES | MIC |
| --- | --- |
| C=C[C@]1(C)C[C@@H](OC(=O)CS[C@@H]2C[C@H]3CC[C@@H](C2)N3C)[C@]2(C)[C@H](C)CC[C@]3(CCC(=O)[C@H]32)[C@@H](C)[C@@H]1O [RETAPAMULIN] | 32 µg/mL (≈ 61.8 µM) |
| C=C[C@]1(C)C[C@@H](OC(=O)CSC(C)(C)CNC(=O)[C@H](N)C(C)C)[C@]2(C)[C@H](C)CC[C@]3(CCC(=O)[C@H]32)[C@@H](C)[C@@H]1O [VALNEMULIN] | 8 µg/mL (≈ 14.2 µM) |

system: Staphylococcus aureus; assay: Antibacterial activity against methicillin-resistant Staphylococcus aureus J1 harboring (lsa(E)+) genotype assessed as inhibition of visible growth of bacteria incubated for 24 hrs by CLSI protocol based broth-dilution method; type: functional

| SMILES | MIC |
| --- | --- |
| C=C[C@]1(C)C[C@@H](OC(=O)CS[C@@H]2C[C@H]3CC[C@@H](C2)N3C)[C@]2(C)[C@H](C)CC[C@]3(CCC(=O)[C@H]32)[C@@H](C)[C@@H]1O [RETAPAMULIN] | > 32 µg/mL |
| C=C[C@]1(C)C[C@@H](OC(=O)CSC(C)(C)CNC(=O)[C@H](N)C(C)C)[C@]2(C)[C@H](C)CC[C@]3(CCC(=O)[C@H]32)[C@@H](C)[C@@H]1O [VALNEMULIN] | > 32 µg/mL |

system: Enterococcus faecium; assay: Antibacterial activity against pleuromutilin-resistant Enterococcus faecium 18SC29-2 harboring (lsa(E)-) genotype assessed as inhibition of visible growth of bacteria incubated for 24 hrs by CLSI protocol based broth-dilution method; type: functional

| SMILES | MIC |
| --- | --- |
| C=C[C@]1(C)C[C@@H](OC(=O)CS[C@@H]2C[C@H]3CC[C@@H](C2)N3C)[C@]2(C)[C@H](C)CC[C@]3(CCC(=O)[C@H]32)[C@@H](C)[C@@H]1O [RETAPAMULIN] | 0.125 µg/mL (≈ 0.241 µM) |
| C=C[C@]1(C)C[C@@H](OC(=O)CSC(C)(C)CNC(=O)[C@H](N)C(C)C)[C@]2(C)[C@H](C)CC[C@]3(CCC(=O)[C@H]32)[C@@H](C)[C@@H]1O [VALNEMULIN] | ≤ 0.06 µg/mL |

system: Enterococcus faecium; assay: Antibacterial activity against pleuromutilin-resistant Enterococcus faecium 18FJZ1-1 harboring (lsa(E)+) genotype assessed as inhibition of visible growth of bacteria incubated for 24 hrs by CLSI protocol based broth-dilution method; type: functional

| SMILES | MIC |
| --- | --- |
| C=C[C@]1(C)C[C@@H](OC(=O)CS[C@@H]2C[C@H]3CC[C@@H](C2)N3C)[C@]2(C)[C@H](C)CC[C@]3(CCC(=O)[C@H]32)[C@@H](C)[C@@H]1O [RETAPAMULIN] | 32 µg/mL (≈ 61.8 µM) |
| C=C[C@]1(C)C[C@@H](OC(=O)CSC(C)(C)CNC(=O)[C@H](N)C(C)C)[C@]2(C)[C@H](C)CC[C@]3(CCC(=O)[C@H]32)[C@@H](C)[C@@H]1O [VALNEMULIN] | 8 µg/mL (≈ 14.2 µM) |
